In patent US3950427A, “Araliphatic ketones and carbinols” (Boehringer Ingelheim GmbH, priority 1973, dated 1976):
Read-outs that look alike come from different tables or passages of the source.

Key:
Assay type in all cases: in vivo, rat (male FW 49)
[1] = test system: Kaolin-induced edema of the hind paw of the rat; assay: Kaolin-induced edema of the hind paw of the rat (anti-exudative effect); settings: 30 minutes before inducing edema, swelling 5 hours after; for ED35: Rattus norvegicus, po, 5 h, read-out: Kaolin edema ED35 per os; for Kaolin edema ED35 per os: oral
Experimental: (§1) The compunds were tested for their anti-exudative effect on Kaolin-induced edema and carrageenin-induced edema in the hind paw of the rat after oral administration to the rat.
a. Kaolin-induced edema of the hind paw of the rat
(§2) The kaolin edema was induced according to the method given by Hillebrecht [Arzneimittel-Forsch. 4, 607 (1954)] by subplanar injection of 0.05 ml of a 10% suspension of kaolin in a 0.85% sodium chloride solution. Measurement of the thickness of the paws was effected using the technique of Doepfner and Cerletti [Int. Arch. Allergy Immunol. 12, 89 (1958)].
(§3) The test compound was administered orally to male FW 49 rats weighing 120-150 gm by means of an esophageal tube 30 minutes before inducing the edema. 5 hours after inducing the edema the average size of the swelling in the rats treated with the test compound was compared with the size of the swelling in blind-treated control animals. By graphic extrapolation the dose leading to a 35% of the swelling (ED35) was calculated from the percentage reduction in the size of the swelling caused by the administration of different doses.

[2] = test system: Kaolin edema and carrageenin edema of the hind paw of the rat; assay: Average value of kaolin edema and carrageenin edema; settings: per os, Table I; for ED35: Rattus norvegicus
Experimental: as §1, §2, §3
(§4) The carrageenin edema was induced according to the method of Winder et al. [Proc. Soc. exp. Biol. Med. 111, 544 (1962)] by subplanar injection of 0.05 ml of a 1% solution of carrageenin in a 0.85% solution of sodium chloride. The test compound was administered 60 minutes before the provocation of the edema.
(§5) For the calculation of the reductive effect on the edema, the size of the swelling was measured 3 hours after the provocation of the edema. All other details were the same as described above in the case of the kaolin edema.

[3] = test system: Carrageenin-induced edema of the hind paw of the rat; assay: Carrageenin-induced edema of the hind paw of the rat (anti-exudative effect); settings: 60 minutes before provocation, swelling 3 hours after; for ED35: Rattus norvegicus, po, 3 h, read-out: Carrageenin edema ED35 per os; for Carrageenin edema ED35 per os: oral
Experimental: as §1, §3
b. Carrageenin-induced edema of the hind paw of the rat
as §4, §5

Adjuvant arthritis-rat = assay: Adjuvant arthritis test on rats (M.butyricum); settings: po, 504 h, 21st day, once daily for 20 days by esophageal tube
Experimental: The adjuvant arthritis tests on rats were performed in analogy to the procedure described by Rosenthale and Nagra [Proc. Soc. exp. Biol. Med. 125, 149 (1967)].
Male FW 49-rats were given a subplantar injection of 0.1 ml of a 1% suspension of M.butyricum in viscous paraffin oil in a hind paw. The test compound was administered, beginning with the M.butyricum injection, once daily for 20 days by esophageal tube.
On the 21st day after inducing the arthritis, the volumes of the right paw (non-specific primary reaction at the place of injection) and the left paw (immunologically predicated specific secondary reaction) of the animals treated with the test compound were compared with those of the blind-treated control animals. From the swelling reduction obtained with the various doses, an ED50 was graphically determined.

[4] = left paw volume, read-out: Adjuvant arthritis-rat ED50 per os, Secondary reaction
[5] = right paw volume, read-out: Adjuvant arthritis-rat ED50 per os, Primary reaction

Structure (SMILES)	ED35 ([1]; Table I) [mg/kg]	ED35 [2] [mg/kg]	ED35 ([3]; Table I) [mg/kg]	other results
CC(O)CCCCCCc1ccc(-c2ccccc2F)cc1 (centres unmarked) [C, 8-(2'-fluoro-4-biphenylyl)-2-octanol]	15	16	17	
C/C(=C\C(C)O)c1ccc(C2CCCCC2)cc1 (centres unmarked) [FF, (e)-4-(4-cyclohexyl-phenyl)-3-pentene-2-ol]				Kaolin edema ED35 per os ([1]; Table I): 49 mgm/kg; Average value ED35 [2]: 42 mgm/kg; Carrageenin edema ED35 per os ([3]; Table I): 35 mgm/kg
CC(=O)/C=C(\C)c1ccc(-c2ccccc2)cc1 [G, (e)-4-(4-biphenylyl)-3-pentene-2-one]	23.5	16.1	8.6	
CC(=O)/C=C(\C)c1ccc(C2CCCCC2)c(Br)c1 [X, (e)-4-(3-bromo-4-cyclohexyl-phenyl)-3-pentene-2-one]	22	22	22	
CC(O)CC(C)c1ccc(C2CCCCC2)c(Cl)c1 (centres unmarked) [S, 4-(3-chloro-4-cyclohexyl-phenyl)-2-pentanol]	7.6	7.3	7	
CC(O)CCc1ccc(-c2ccccc2)c(F)c1 (centres unmarked) [B, 4-(2-fluoro-4-biphenylyl)-2-butanol]	16	14	12	
CC(=O)/C=C(\C)c1ccc([C@@H]2CCCC[C@H]2C)cc1 (relative stereo) [BB, (e,e)-4-[4-(2-methyl-cyclohexyl)-phenyl]-3-pentene-2-one]	19	16	13	
CC(=O)/C=C(\C)c1ccc(-c2ccccc2F)cc1 [H, (e)-4-(2'-fluoro-4-biphenylyl)-3-pentene-2-one]	37	22.9	8.9	ED35 ([1]; Table II): 37 mg/kg; ED50 (Adjuvant arthritis-rat; [4]): < 1 mg/kg; ED50 (Adjuvant arthritis-rat; [5]): < 2 mg/kg; ED35 ([3]; Table II): 11 mg/kg
C/C(=C\C(C)O)c1ccc(-c2ccccc2)c(Cl)c1 (centres unmarked) [M, (e)-4-(2-chloro-4-biphenylyl)-3-pentene-2-ol]	26	24.5	23	
CC(O)CC(C)c1ccc(-c2ccccc2)c(F)c1 (centres unmarked) [I, 4-(2-fluoro-4-biphenylyl)-2-pentanol]	17	16.8	16.5	
CC(=O)/C=C(\C)c1ccc(C2CCCCC2)cc1 [T, (e)-4-(4-cyclohexyl-phenyl)-3-pentene-2one]	12.5	12.2	12	
CC(O)CC(C)c1ccc(C2CCCCC2)cc1 (centres unmarked) [W, 4-(4-cyclohexyl-phenyl)-2-pentanol]	26			
CC(=O)/C=C(\C)c1ccc(CC(C)C)c(Cl)c1 [DD, (e)-4-(3-chloro-4-isobutyl-phenyl)-3-pentene-2-one]	50	34.5	19	
CC(=O)CC(C)c1ccc(C2CCCCC2)c(Br)c1 (centres unmarked) [Y, 4-(3-bromo-4-cyclohexyl-phenyl)-2-pentanone]	13			
CC(O)CC(C)c1ccc(-c2ccccc2)c(Cl)c1 (centres unmarked) [O, 4(2-chloro-4-biphenylyl)-2-pentanol]	48			
CC(=O)CC(C)c1ccc(-c2ccccc2)cc1 (centres unmarked) [E, 4-(4-biphenylyl)-2-pentanone]	21	18	15	ED35 ([1]; Table II): 21 mg/kg; ED50 (Adjuvant arthritis-rat; [4]): < 4 mg/kg; ED50 (Adjuvant arthritis-rat; [5]): < 4 mg/kg; ED35 ([3]; Table II): 15 mg/kg

Structure (SMILES)	ED35 ([1]; Table I) [mg/kg]	ED35 [2] [mg/kg]	ED35 ([3]; Table I) [mg/kg]	other results
CC(=O)CCCCCCc1ccc(-c2ccccc2F)cc1 [F, 8-(2'-fluoro-4-biphenylyl)-2-octanone]	9.8	12.2	14.5	
CC(=O)CCCCc1ccc(-c2ccccc2F)cc1 [D, 6-(2'-fluoro-4-biphenylyl)-2-hexanone]	9	9.75	10.5	
CC(=O)CC(C)c1ccc(C2CCCCC2)cc1 (centres unmarked) [U, 4-(4-cyclohexyl-phenyl)-2-pentanone]	15			
CC(=O)CC(C)c1ccc(C2CCCCC2)c(Cl)c1 (centres unmarked) [Q, 4-(3-chloro-4-cyclohexyl-phenyl)-2-pentanone]	5	3.75	2.5	ED35 ([1]; Table II): 5 mg/kg; ED50 (Adjuvant arthritis-rat; [4]): < 0.2 mg/kg; ED50 (Adjuvant arthritis-rat; [5]): < 0.4 mg/kg; ED35 ([3]; Table II): 2.5 mg/kg
C/C(=C\C(C)O)c1ccc(C2CCCCC2)c(Cl)c1 (centres unmarked) [R, (e)-4-(3-chloro-4-cyclohexyl-phenyl)-3-pentene-2-ol]	4.8	3.95	3.1	ED35 ([1]; Table II): 4.8 mg/kg; ED50 (Adjuvant arthritis-rat; [4]): < 0.7 mg/kg; ED50 (Adjuvant arthritis-rat; [5]): < 0.3 mg/kg; ED35 ([3]; Table II): 3.1 mg/kg
C/C(=C\C(C)O)c1ccc(C2CCCCC2)cc1 (centres unmarked) [V, (e)-4-(4-cyclohexyl-phenyl)-3-pentene-2-ol]				Kaolin edema ED35 per os ([1]; Table I): 13.3 mgm/kg; Average value ED35 [2]: 10.45 mgm/kg; Carrageenin edema ED35 per os ([3]; Table I): 7.6 mgm/kg
CC(=O)/C=C(\C)c1ccc(C2CCCCC2)c(Cl)c1 [P, (e)-4-(3-chloro-4-cyclohexyl-phenyl)-3-pentene-2-one]	17	12.8	8.6	ED35 ([1]; Table II): 17 mg/kg; ED50 (Adjuvant arthritis-rat; [4]): < 0.6 mg/kg; ED50 (Adjuvant arthritis-rat; [5]): < 0.7 mg/kg; ED35 ([3]; Table II): 8.6 mg/kg
CC(=O)CC(C)c1ccc(C2CCCCC2C)cc1 (centres unmarked) [CC, (e)-4-[4-(2-methyl-cyclohexyl)-phenyl]-2-pentanone]	29	25	21	
C/C(=C\C(C)O)c1ccc(C2CCCCC2)c(Br)c1 (centres unmarked) [Z, (e)-4-(3-bromo-4-cyclohexyl-phenyl)-3-pentene-2-ol]	16			
CC(O)/C=C/c1ccc(-c2ccccc2)c(F)c1 (centres unmarked) [A, (e)-4-(2-fluoro-4-biphenylyl)-3-butene-2-ol]	15	13.7	12.4	
C/C(=C\C(C)O)c1ccc(-c2ccccc2F)cc1 (centres unmarked) [K, (e)-4-(2'-fluoro-4-biphenylyl)-3-pentene-2-ol]	17.5	15.2	12.8	ED35 ([1]; Table II): 17.5 mg/kg; ED50 (Adjuvant arthritis-rat; [4]): < 2 mg/kg; ED50 (Adjuvant arthritis-rat; [5]): < 1.5 mg/kg; ED35 ([3]; Table II): 17 mg/kg
CC(=O)/C=C(\C)c1ccc(-c2ccccc2)c(Cl)c1 [L, (e)-4-(2-chloro-4-biphenylyl)-3-pentene-2-one]	15.5	10.6	5.6	
CC(=O)CC(C)c1ccc(-c2ccccc2)c(Cl)c1 (centres unmarked) [N, 4-(2-chloro-4-biphenylyl)-2-pentanone]	31.5	24	16.5	
CC(O)CC(C)c1ccc(C2CCCCC2)c(Br)c1 (centres unmarked) [AA, 4-(3-bromo-4-cyclohexyl-phenyl)-2-pentanol]	28	23.2	18.5	
C/C(=C\C(C)O)c1ccc(CC(C)C)c(Cl)c1 (centres unmarked) [EE, (e)-4-(3-chloro-4-isobutyl-phenyl)-3-pentane-2-ol]	54	53	52	
